The test system of test [1] is allodynia model in rats. Particulars: treatment of 50 µmol/kg, Neuroreport, Vol. 9, pp.367-372 (1998); cited from earlier work.
Test [2] relates to formalin model in rats. Description: Formalin test in rats, intrathecal injection. Particulars: for number of flinch: both doses, 2 or 20µg/10µl/rat intrathecally 10min prior to formalin, compared to vehicle treated group. The format is in vivo, Sprague-Dawley rats. Here is the method: Eight weeks old male Sprague-Dawley rats were used. According to the method of Yaksh et al., the rat was mounted on the brain stereotaxis apparatus under sodium pentobarbital anesthesia and a polyethylene tube filled with saline was threaded approximately 3cm into intraspinal side through the cisternal incision.
A day after implantation, the rat had no hindlimb paralysis was administered 50µl of 5% formalin subcutaneously and was placed in the observational plastic cage immediately. Formalin injection time was regarded as 0min and for 1min every 5min until 60min, number of leg-up response (flinch) was counted. The compound of formula (IA-1) ((+)-trans-3-imino-5-methyl-7-chloro-2-azabicyclo[4.1.0]heptane Monohydrochloride) of the present invention was dissolved in saline, subsequently the dose of 2 or 20µg/10µl/rat was administered intrathecally via polyethylene tube 10min prior to the formalin injection.

Test [3] relates to Bennett hyperalgesia model in rats. The test can be described thus: Hyperalgesia to thermostimulus in Bennett model in rats (plantar test), intrathecal injection. The format is in vivo, Sprague-Dawley rats. The text has this:
Seven weeks old male Sprague-Dawley rats were used. According to the method of Yaksh et al. (J.Physiol. Behav. Vol.17, pp.1031-1036, 1976), the rat was mounted on the brain stereotaxis apparatus under sodium pentobarbital anesthesia and a polyethylene tube filled with saline was threaded about 3cm into intraspinal side through the cisternal incision.
A day after implantation, rats had no hindlimb paralysis were restrained in a prostrate position after induction of anesthetization with pentobarbital sodium. According to the method of Bennett and Xie et al. (Pain, Vol.33, pp.87-107, 1988), an incision of 2cm was cut along the skin of the femoral region of the right hindlimb, and the exposed sciatic nerve was constricted with 2 pieces of gut suture at 2 distal sites, and the incision was closed with a piece of silk suture. The left hindlimb was similarly operated on without performing any constriction of the sciatic nerve (sham-operated hindlimb).
Six days after the operation, the response latency to nociceptive thermostimulus was determined with the plantar test device, and rats with hyperalgesia were selected for the drug evaluation study on next day. […] By using a digital timer installed in the plantar testing device, the interval (response latency) from initiation of illumination to the time required for the animal to lift the hindlimb in an attempt to escape was measured. […]

Where a name gives a salt, the structure may show the parent alone.

As for `COC(=O)[C@@H](N)CCCNC(=N)N[N+](=O)[O-]` [L-NAME], the “effect on allodynia model” value in test [1] is “showed effect”.
In the case of `C[C@H]1CC(=N)N[C@@H]2[C@H](Cl)[C@@H]21` [IA-1, (+)-trans-3-imino-5-methyl-7-chloro-2-azabicyclo[4.1.0]heptane Monohydrochloride], the number of flinch result in test [2] (first phase (0-10min after formalin injection)) and in test [2] (second phase (10-60min after formalin injection)) was “decreased” each time. Also, the analgetic effects entry in test [2] (formalin test in rats, summary statement) is on record as “showed analgetic effects”; in test [3] (Bennett model in rats, summary statement) it was “showed analgetic effects”. Moreover, the “hyperalgesia to nociceptive thermostimulus” value in test [3] (0.2, 2 or 20µg/10µl/rat intrathecally 20min prior to plantar test, compared to vehicle treated rats) is listed as “improved”.

Values taken from patent EP1199078A1, “ANALGESICS” (ONO PHARMACEUTICAL CO., LTD., priority 1999, dated 2000).
